Numbered stars: 1 amine (or outer) side, 2 acyl side, 3 side chain; on linkers, the order of the positions; unused ones are H or OH. Square brackets hold non-standard residues; d marks the D form. Peptide text beside a SMILES is read from it. * marks the point of attachment. NH(1S,2S-2-CONH2-cPent) = NC(=O)[C@H]1CCC[C@@H]1N*; β3hW = N[C@H](CC(=O)O)Cc1c[nH]c2ccccc12; ACPC(1S,2S) = N[C@H]1CCC[C@@H]1C(=O)*; X1 = O=C([C@H]1CCC[C@@H]1N[*:1])[*:2]; X2 = O=C([C@H]1CNC[C@@H]1N[*:1])[*:2]; hArg = N=C(N)NCCCC[C@H](N)C(=O)O; β3hE = N[C@@H](CCC(=O)O)CC(=O)O; β3hF = N[C@H](CC(=O)O)Cc1ccccc1; β3hK = NCCCC[C@H](N)CC(=O)O; β3hM = CSCC[C@H](N)CC(=O)O; β3hD = NC(CC(=O)O)CC(=O)O; Aib = CC(C)(N)C(=O)O
Assays:
[1] = target: T1, Parathyroid hormone/parathyroid hormone-related peptide receptor (Homo sapiens) (UniProt Q03431); test: Agonist activity at human PTH1 receptor expressed in human GP2.3 cells assessed as induction of cAMP after 12 to 20 mins by luciferase reporter gene assay relative to PTH(1 to 34 residues)-NH2; assay type: functional, cell-based
T1 sequence (whole entry): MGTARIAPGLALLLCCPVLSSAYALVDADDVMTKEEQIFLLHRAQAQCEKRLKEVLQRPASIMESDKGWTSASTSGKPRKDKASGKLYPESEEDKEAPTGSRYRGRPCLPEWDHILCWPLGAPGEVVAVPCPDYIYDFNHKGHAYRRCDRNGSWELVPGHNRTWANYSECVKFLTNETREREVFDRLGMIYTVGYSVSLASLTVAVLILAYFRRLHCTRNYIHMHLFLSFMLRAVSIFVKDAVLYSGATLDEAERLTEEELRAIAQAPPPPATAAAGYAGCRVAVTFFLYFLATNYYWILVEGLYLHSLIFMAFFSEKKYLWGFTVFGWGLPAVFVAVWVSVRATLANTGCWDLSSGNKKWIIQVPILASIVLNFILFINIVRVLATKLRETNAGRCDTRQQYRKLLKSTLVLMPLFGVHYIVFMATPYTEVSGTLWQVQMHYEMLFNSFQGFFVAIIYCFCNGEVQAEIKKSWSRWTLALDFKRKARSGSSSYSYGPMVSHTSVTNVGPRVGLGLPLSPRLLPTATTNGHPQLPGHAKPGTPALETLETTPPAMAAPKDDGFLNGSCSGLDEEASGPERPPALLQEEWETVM

[2] = target: T2, Parathyroid hormone/parathyroid hormone-related peptide receptor (Homo sapiens, UniProt Q03431); test: Agonist activity at human PTH1 receptor expressed in human GP2.3 cells assessed as induction of cAMP after 12 to 20 mins by luciferase reporter gene assay; assay type: functional, cell-based; conditions: read-out: EC50
T2 sequence (Q03431 whole entry): T1 sequence (whole entry)

| Structure (SMILES) | fold change (FC) [1] | EC50 [2] |
| --- | --- | --- |
| CC[C@H](C)[C@H](NC(=O)[C@H](CCC(=O)O)NC(=O)[C@H](C)NC(=O)[C@@H](NC(=O)[C@H](C)N)C(C)C)C(=O)N[C@@H](CCC(N)=O)C(=O)N[C@@H](CC(C)C)C(=O)N[C@@H](CCSC)C(=O)N[C@@H](Cc1cnc[nH]1)C(=O)N[C@@H](CCC(N)=O)C(=O)N[C@@H](CCCCNC(=N)N)C(=O)N[C@@H](C)C(=O)N[C@@H](CCCCN)C(=O)N[C@@H](Cc1c[nH]c2ccccc12)C(=O)N[C@@H](CC(C)C)C(=O)N[C@@H](CC(N)=O)C(=O)N[C@@H](CO)C(=O)N[C@@H](CCSC)C(=O)N[C@@H](CCCNC(=N)N)C(=O)N[C@@H](CCCNC(=N)N)C(=O)N[C@H](C(=O)N[C@@H](CCC(=O)O)C(=O)N[C@@H](Cc1c[nH]c2ccccc12)C(=O)N[C@@H](CC(C)C)C(=O)N[C@@H](CCCNC(=N)N)C(=O)N[C@@H](CCCCN)C(=O)N[C@@H](CCCCN)C(=O)N[C@@H](CC(C)C)C(=O)N[C@@H](CCC(N)=O)C(=O)N[C@@H](CC(=O)O)C(=O)N[C@H](C(=O)N[C@@H](Cc1cnc[nH]1)C(=O)N[C@@H](CC(N)=O)C(=O)N[C@@H](Cc1ccccc1)C(N)=O)C(C)C)C(C)C (H-AVAEIQLMHQ[hArg]AKWLNSMRRVEWLRKKLQDVHNF-NH2) | 4.2 | 0.34 nM |
| CSCC[C@H](NC(=O)[C@H](CO)NC(=O)[C@H](CC(N)=O)NC(=O)[C@H](CC(C)C)NC(=O)[C@H](Cc1c[nH]c2ccccc12)NC(=O)[C@H](CCCCN)NC(=O)[C@H](C)NC(=O)[C@H](CCCCNC(=N)N)NC(=O)[C@H](CCC(N)=O)NC(=O)[C@H](Cc1cnc[nH]1)NC(=O)[C@H](CCSC)NC(=O)[C@H]1CCC[C@@H]1NC(=O)[C@H](CCC(N)=O)NC(=O)[C@H]1CCC[C@@H]1NC(=O)[C@H](CCC(=O)O)NC(=O)C(C)(C)NC(=O)[C@@H](NC(=O)[C@H]1CCC[C@@H]1N)C(C)C)C(=O)N[C@@H](CCCNC(=N)N)C(=O)N[C@@H](CCCNC(=N)N)C(=O)N[C@H](C(=O)N[C@@H](CCC(=O)O)C(=O)N[C@@H](Cc1c[nH]c2ccccc12)C(=O)N[C@@H](CC(C)C)C(=O)N[C@@H](CCCNC(=N)N)C(=O)N[C@@H](CCCCN)C(=O)N[C@@H](CCCCN)C(=O)N[C@@H](CC(C)C)C(=O)N[C@@H](CCC(N)=O)C(=O)N[C@@H](CC(=O)O)C(=O)N[C@H](C(=O)N[C@@H](Cc1cnc[nH]1)C(=O)N[C@@H](CC(N)=O)C(=O)N[C@@H](Cc1ccccc1)C(N)=O)C(C)C)C(C)C ({ACPC(1S,2S)}-V[Aib]E[X1]Q[X1]MHQ[hArg]AKWLNSMRRVEWLRKKLQDVHNF-NH2) | 4.9 | 0.4 nM |
| CC[C@H](C)[C@H](NC(=O)[C@H](CCC(=O)O)NC(=O)C(C)(C)NC(=O)[C@@H](NC(=O)[C@H]1CCC[C@@H]1N)C(C)C)C(=O)N[C@@H](CCC(N)=O)C(=O)N[C@H]1CCC[C@@H]1C(=O)N[C@@H](CCSC)C(=O)N[C@@H](Cc1cnc[nH]1)C(=O)N[C@@H](CCC(N)=O)C(=O)N[C@@H](CCCCNC(=N)N)C(=O)N[C@@H](C)C(=O)N[C@@H](CCCCN)C(=O)N[C@H]1CCC[C@@H]1C(=O)N[C@@H](CC(C)C)C(=O)N[C@@H](CC(N)=O)C(=O)N[C@@H](CO)C(=O)N[C@H]1CCC[C@@H]1C(=O)N[C@@H](CCCNC(=N)N)C(=O)N[C@@H](CCCNC(=N)N)C(=O)N[C@H](C(=O)N[C@H]1CNC[C@@H]1C(=O)N[C@@H](Cc1c[nH]c2ccccc12)C(=O)N[C@@H](CC(C)C)C(=O)N[C@@H](CCCNC(=N)N)C(=O)N[C@H]1CNC[C@@H]1C(=O)N[C@@H](CCCCN)C(=O)N[C@@H](CC(C)C)C(=O)N[C@@H](CCC(N)=O)C(=O)N[C@H]1CCC[C@@H]1C(=O)N[C@H](C(=O)N[C@@H](Cc1cnc[nH]1)C(=O)N[C@@H](CC(N)=O)C(=O)N[C@H]1CCC[C@@H]1C(N)=O)C(C)C)C(C)C ({ACPC(1S,2S)}-V[Aib]EIQ[X1]MHQ[hArg]AK[X1]LNS[X1]RRV[X2]WLR[X2]KLQ[X1]VHN-{NH(1S,2S-2-CONH2-cPent)}) | 22 | 1.8 nM |
| CC[C@H](C)[C@H](NC(=O)[C@H](CCC(=O)O)NC(=O)[C@H](CO)NC(=O)[C@@H](NC(=O)[C@H]1CCC[C@@H]1N)C(C)C)C(=O)N[C@@H](CCC(N)=O)C(=O)N[C@H]1CCC[C@@H]1C(=O)N[C@@H](CCSC)C(=O)N[C@@H](Cc1cnc[nH]1)C(=O)N[C@@H](CC(N)=O)C(=O)N[C@@H](CC(C)C)C(=O)NCC(=O)N[C@@H](CCCCN)C(=O)N[C@H](CC(=O)N[C@@H](CC(C)C)C(=O)N[C@@H](CC(N)=O)C(=O)N[C@@H](CO)C(=O)N[C@@H](CCSC)CC(=O)N[C@@H](CCC(=O)O)C(=O)N[C@@H](CCCNC(=N)N)C(=O)N[C@H](C(=O)N[C@@H](CCC(=O)O)CC(=O)N[C@@H](Cc1c[nH]c2ccccc12)C(=O)N[C@@H](CC(C)C)C(=O)N[C@@H](CCCNC(=N)N)C(=O)N[C@@H](CCCCN)CC(=O)N[C@@H](CCCCN)C(=O)N[C@@H](CC(C)C)C(=O)N[C@@H](CCC(N)=O)C(=O)N[C@@H](CC(=O)O)CC(=O)N[C@H](C(=O)N[C@@H](Cc1cnc[nH]1)C(=O)N[C@@H](CC(N)=O)C(=O)N[C@H](CC(N)=O)Cc1ccccc1)C(C)C)C(C)C)Cc1c[nH]c2ccccc12 ({ACPC(1S,2S)}-VSEIQ[X1]MHNLGK[β3hW]LNS[β3hM]ERV[β3hE]WLR[β3hK]KLQ[β3hD]VHN[β3hF]-NH2) | 22.6 | 1.84 nM |
| CC[C@H](C)[C@H](NC(=O)[C@H](CCC(=O)O)NC(=O)[C@H](C)NC(=O)[C@@H](NC(=O)[C@H](C)N)C(C)C)C(=O)N[C@@H](CCC(N)=O)C(=O)N[C@@H](CC(C)C)C(=O)N[C@@H](CCSC)C(=O)N[C@@H](Cc1cnc[nH]1)C(=O)N[C@@H](CCC(N)=O)C(=O)N[C@@H](CCCCNC(=N)N)C(=O)N[C@@H](C)C(=O)N[C@@H](CCCCN)C(=O)N[C@H](CC(=O)N[C@@H](CC(C)C)C(=O)N[C@@H](CC(N)=O)C(=O)N[C@@H](CO)C(=O)N[C@@H](CCSC)CC(=O)N[C@@H](CCCNC(=N)N)C(=O)N[C@@H](CCCNC(=N)N)C(=O)N[C@H](C(=O)N[C@@H](CCC(=O)O)CC(=O)N[C@@H](Cc1c[nH]c2ccccc12)C(=O)N[C@@H](CC(C)C)C(=O)N[C@@H](CCCNC(=N)N)C(=O)N[C@@H](CCCCN)CC(=O)N[C@@H](CCCCN)C(=O)N[C@@H](CC(C)C)C(=O)N[C@@H](CCC(N)=O)C(=O)N[C@@H](CC(=O)O)CC(=O)N[C@H](C(=O)N[C@@H](Cc1cnc[nH]1)C(=O)N[C@@H](CC(N)=O)C(=O)N[C@H](CC(N)=O)Cc1ccccc1)C(C)C)C(C)C)Cc1c[nH]c2ccccc12 (H-AVAEIQLMHQ[hArg]AK[β3hW]LNS[β3hM]RRV[β3hE]WLR[β3hK]KLQ[β3hD]VHN[β3hF]-NH2) | 5.4 | 0.44 nM |
| CSCC[C@@H](CC(=O)N[C@@H](CCCNC(=N)N)C(=O)N[C@@H](CCCNC(=N)N)C(=O)N[C@H](C(=O)N[C@@H](CCC(=O)O)CC(=O)N[C@@H](Cc1c[nH]c2ccccc12)C(=O)N[C@@H](CC(C)C)C(=O)N[C@@H](CCCNC(=N)N)C(=O)N[C@@H](CCCCN)CC(=O)N[C@@H](CCCCN)C(=O)N[C@@H](CC(C)C)C(=O)N[C@@H](CCC(N)=O)C(=O)N[C@@H](CC(=O)O)CC(=O)N[C@H](C(=O)N[C@@H](Cc1cnc[nH]1)C(=O)N[C@@H](CC(N)=O)C(=O)N[C@H](CC(N)=O)Cc1ccccc1)C(C)C)C(C)C)NC(=O)[C@H](CO)NC(=O)[C@H](CC(N)=O)NC(=O)[C@H](CC(C)C)NC(=O)C[C@H](Cc1c[nH]c2ccccc12)NC(=O)[C@H](CCCCN)NC(=O)[C@H](C)NC(=O)[C@H](CCCCNC(=N)N)NC(=O)[C@H](CCC(N)=O)NC(=O)[C@H](Cc1cnc[nH]1)NC(=O)[C@H](CCSC)NC(=O)[C@H]1CCC[C@@H]1NC(=O)[C@H](CCC(N)=O)NC(=O)[C@H]1CCC[C@@H]1NC(=O)[C@H](CCC(=O)O)NC(=O)C(C)(C)NC(=O)[C@@H](NC(=O)[C@H]1CCC[C@@H]1N)C(C)C ({ACPC(1S,2S)}-V[Aib]E[X1]Q[X1]MHQ[hArg]AK[β3hW]LNS[β3hM]RRV[β3hE]WLR[β3hK]KLQ[β3hD]VHN[β3hF]-NH2) | 9.7 | 0.79 nM |
| CSCC[C@@H](CC(=O)N[C@@H](CCC(=O)O)C(=O)N[C@@H](CCCNC(=N)N)C(=O)N[C@H](C(=O)N[C@@H](CCC(=O)O)CC(=O)N[C@@H](Cc1c[nH]c2ccccc12)C(=O)N[C@@H](CC(C)C)C(=O)N[C@@H](CCCNC(=N)N)C(=O)N[C@@H](CCCCN)CC(=O)N[C@@H](CCCCN)C(=O)N[C@@H](CC(C)C)C(=O)N[C@@H](CCC(N)=O)C(=O)N[C@@H](CC(=O)O)CC(=O)N[C@H](C(=O)N[C@@H](Cc1cnc[nH]1)C(=O)N[C@@H](CC(N)=O)C(=O)N[C@H](CC(N)=O)Cc1ccccc1)C(C)C)C(C)C)NC(=O)[C@H](CO)NC(=O)[C@H](CC(N)=O)NC(=O)[C@H](CC(C)C)NC(=O)C[C@H](Cc1c[nH]c2ccccc12)NC(=O)[C@H](CCCCN)NC(=O)CNC(=O)[C@H](CC(C)C)NC(=O)[C@H](CC(N)=O)NC(=O)[C@H](Cc1cnc[nH]1)NC(=O)[C@H](CCSC)NC(=O)[C@H]1CCC[C@@H]1NC(=O)[C@H](CCC(N)=O)NC(=O)[C@H]1CCC[C@@H]1NC(=O)[C@H](CCC(=O)O)NC(=O)[C@H](CO)NC(=O)[C@@H](NC(=O)[C@H]1CCC[C@@H]1N)C(C)C ({ACPC(1S,2S)}-VSE[X1]Q[X1]MHNLGK[β3hW]LNS[β3hM]ERV[β3hE]WLR[β3hK]KLQ[β3hD]VHN[β3hF]-NH2) | 2050 | 167 nM |

From ChEMBL document CHEMBL4024754, “Development of Potent, Protease-Resistant Agonists of the Parathyroid Hormone Receptor with Broad β Residue Distribution” (J Med Chem, 2017)
